The source of these data is ChEMBL document CHEMBL1136537, “The discovery of a new class of large-conductance Ca2+-activated K+ channel opener targeted for overactive bladder: synthesis and structure-activity relationships of 2-amino-4-azaindoles” (Bioorg Med Chem Lett, 2003).

The target in assay [1] is T1, Calcium-activated potassium channel subunit alpha-1 (Homo sapiens, UniProt Q12791). Kind of assay: BKca channel opening activity in HEK293 cells stably transfected with BKca alpha subunits at 10 uM concentration using a [86Rb+] efflux assay. Type of assay: cell-based.
T1 sequence (Q12791 whole entry): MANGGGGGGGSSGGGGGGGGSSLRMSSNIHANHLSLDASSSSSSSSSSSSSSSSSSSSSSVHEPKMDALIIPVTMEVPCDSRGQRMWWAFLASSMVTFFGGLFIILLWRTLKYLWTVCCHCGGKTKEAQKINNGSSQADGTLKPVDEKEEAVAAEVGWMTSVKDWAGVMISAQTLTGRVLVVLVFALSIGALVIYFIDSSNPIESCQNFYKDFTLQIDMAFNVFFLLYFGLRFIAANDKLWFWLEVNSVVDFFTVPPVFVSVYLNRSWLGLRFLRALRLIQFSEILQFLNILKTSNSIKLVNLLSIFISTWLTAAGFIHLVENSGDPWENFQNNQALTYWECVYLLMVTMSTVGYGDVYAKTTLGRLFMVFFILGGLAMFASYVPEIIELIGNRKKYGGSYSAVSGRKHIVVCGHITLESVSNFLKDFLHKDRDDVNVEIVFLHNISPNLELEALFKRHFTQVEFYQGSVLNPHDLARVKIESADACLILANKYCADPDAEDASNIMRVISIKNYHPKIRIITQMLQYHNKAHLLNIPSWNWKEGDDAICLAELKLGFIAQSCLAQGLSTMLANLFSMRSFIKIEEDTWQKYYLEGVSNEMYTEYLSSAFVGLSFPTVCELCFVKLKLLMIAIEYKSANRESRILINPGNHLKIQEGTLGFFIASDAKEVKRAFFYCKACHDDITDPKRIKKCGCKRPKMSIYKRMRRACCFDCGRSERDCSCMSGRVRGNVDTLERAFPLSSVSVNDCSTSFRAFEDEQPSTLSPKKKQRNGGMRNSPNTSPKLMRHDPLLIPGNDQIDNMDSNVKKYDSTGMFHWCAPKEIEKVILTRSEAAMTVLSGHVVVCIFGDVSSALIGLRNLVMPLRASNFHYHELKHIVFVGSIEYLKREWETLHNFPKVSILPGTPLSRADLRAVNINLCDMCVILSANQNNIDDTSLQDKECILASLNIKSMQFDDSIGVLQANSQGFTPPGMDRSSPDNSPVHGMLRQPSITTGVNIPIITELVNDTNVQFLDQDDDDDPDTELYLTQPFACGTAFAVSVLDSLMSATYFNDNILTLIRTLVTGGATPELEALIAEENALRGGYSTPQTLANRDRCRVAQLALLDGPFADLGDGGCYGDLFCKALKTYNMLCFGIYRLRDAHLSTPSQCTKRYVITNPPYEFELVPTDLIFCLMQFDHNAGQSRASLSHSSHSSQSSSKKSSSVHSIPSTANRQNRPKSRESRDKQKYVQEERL
In assay [2] the target is T1, Calcium-activated potassium channel subunit alpha-1. Kind of assay: [86Rb+] efflux induced by BKca alpha subunits expressed in HEK293 cells at 10 uM. In kind it is cell-based.
The species entered for assay [3] is Sus scrofa. Put plainly: In vitro maximal efficacy in stable twitch response in isolated Landrace pig bladder detrusor strips relative to P-1075.
The species named for assay [4] is Sus scrofa. Kind of assay: In vitro concentration to suppress electrically stimulated contraction in isolated Landrance pig bladder detrusor strips. In kind it is functional.
Assay [5] has as its target T1, Calcium-activated potassium channel subunit alpha-1. Put plainly: BKca opening activity as outward current at 10 uM in HEK293 cells. In kind it is cell-based.

pEC50: −log10 of the molar value.

A word on the pEC50: it is −log10 of the EC50, conventionally taken in molar units. With `CCN(CC)c1[nH]c2cccnc2c1C#N`, the Response in assay [1] stood at 57%. In assay [2], the pEC50 was 5.16.
Take `N#Cc1c(N2CC[C@@H](O)C2)[nH]c2cccnc12`: the Response in assay [1] turned out to be 0%. Further, the EC50 result in assay [2] is listed as “Not Active”.
As to `CN1CCN(c2[nH]c3cccnc3c2C#N)CC1`, the Response in assay [1] turned out to be 0%. For the same compound, in assay [2], the EC50 entry was “Not Active”.
The matching figures for `N#Cc1c(N2CC=CC2)[nH]c2cccnc12`: 0% and “Not Active”.
Regarding `COC(=O)C1CCN(c2[nH]c3cccnc3c2C#N)CC1`, in assay [1], the Response was determined as 55%. In addition, in assay [2], the pEC50 was 4.77.
For `N#Cc1c(N2CCC(O)CC2)[nH]c2cccnc12`, in that order: 28% and 4.82.
The matching figures for `N#Cc1c(-n2ccnc2)[nH]c2cccnc12`: 62% and 5.23.
For the compound `N#Cc1c(Cl)[nH]c2cccnc12`, the Response in assay [1] was found to be 0%. Moreover, in assay [2], the EC50 entry is given as “Not Active”.
The matching figures for `CCCN(CCO)c1[nH]c2cccnc2c1C#N`: 0% and “Not Active”.
The matching figures for `N#Cc1c(N2CCC[C@@H]2CO)[nH]c2cccnc12`: 0% and “Not Active”.
For the compound `N#Cc1c(N2CCC[C@H]2CO)[nH]c2cccnc12`, the Response in assay [1] was determined as 0%. In assay [2], the EC50 result is on record as “Not Active”.
`N#Cc1c(N2CCCC2)[nH]c2cccnc12`: in assay [1], the Response was 58%. In addition, the negative logarithm of the EC50 (pEC50) in assay [2] was 5.09.
Regarding `CN1CCCN(c2[nH]c3cccnc3c2C#N)CC1`, the Response in assay [1] was determined as 0%. The EC50 result in assay [2] is recorded as “Not Active”.
Turning to `N#Cc1c(N2CCCCC2)[nH]c2cccnc12`, in assay [1], the Response was found to be 3.02%. Besides, the Efficacy in the assay filed under Sus scrofa [3] is 67%. Also, the negative logarithm of the EC50 (pEC50) in the assay listed under Sus scrofa [4] is 4.61. In addition, the EC50 result in assay [2] is reported as “Not Active”.
With `N#Cc1c(NCc2ccccc2)[nH]c2cccnc12`, the Response in assay [1] came out at 0%. For the same compound, in assay [2], the EC50 result was “Not Active”.
The compound `Cc1c(-c2ccccc2F)[nH]c(N)c1C#N` returned an Efficacy in the assay listed under Sus scrofa [3] of 93%. In addition, in assay [5], the Response stood at 21.7%. Further, in the assay filed under Sus scrofa [4], the pEC50 was 4.20.
Take `N#Cc1c(N2CCCCCC2)[nH]c2cccnc12`: the Response in assay [1] came out at 61%. Also, the Efficacy in the assay listed under Sus scrofa [3] amounted to 63%. In assay [5], the Activity is 105%. In addition, the pEC50 was 4.59 in the assay filed under Sus scrofa [4] and 5.48 in assay [2].
Regarding `N#Cc1c(N2CCOCC2)[nH]c2cccnc12`, the Response in assay [1] amounted to 62%. In addition, the pEC50 in assay [2] is 5.41.
The matching figures for `N#Cc1c(N2CC3CCC(CC3)C2)[nH]c2cccnc12`: 74% and 5.35.
For the compound `CN(C)c1[nH]c2cccnc2c1C#N`, the Response in assay [1] amounted to 60%. The compound also had an Efficacy in the assay listed under Sus scrofa [3] of 58%. The Activity in assay [5] is 75.5%. Further, the pEC50 in the assay listed under Sus scrofa [4] is 4.63; in assay [2], 5.29.
For `N#Cc1c(N2CCCCCCC2)[nH]c2cccnc12`, in assay [1], the Response worked out at 0%. The EC50 result in assay [2] was “Not Active”.
For the compound `CN(C)CCN(C)c1[nH]c2cccnc2c1C#N`, the Response in assay [1] amounted to 63%. The pEC50 in assay [2] is 5.17.
With `N#Cc1c(N2CCC3CCCCC3C2)[nH]c2cccnc12` (stereo unspecified), the Response in assay [1] turned out to be 0%. The EC50 result in assay [2] was “Not Active”.
With `N#Cc1c(Nc2ccccc2)[nH]c2cccnc12`, in assay [1], the Response was found to be 0%. For the same compound, in assay [2], the EC50 result is “Not Active”.
The matching figures for `C[C@@H]1CC[C@@H](C)N1c1[nH]c2cccnc2c1C#N`: 0% and “Not Active”.
In the case of `N#Cc1c(N2CCC[C@H](O)C2)[nH]c2cccnc12`, the Response in assay [1] turned out to be 65%. In the assay filed under Sus scrofa [3], this compound showed an Efficacy of 31%. For the same compound, the Activity in assay [5] worked out at 108%. For the same compound, the pEC50 was 5.03 in the assay listed under Sus scrofa [4] and 5.29 in assay [2].
In the case of `N#Cc1c(O)[nH]c2cccnc12`, the Response in assay [1] stood at 65%. Besides, the negative-log EC50 (pEC50) in assay [2] is 4.87.
